Residues, ends and D or L forms follow the SMILES beside them.
Legend:
Parameters in all cases: species or system group A streptococcus
[1] = system: type IIb Fc receptor (Mr 38,000; IgG3-specific receptor) of group A streptococcal strain 64/14/HRP; assay: Inhibition of 125I-labeled human IgG3 binding to strain 64/14/HRP; conditions: whole bacteria 64/14/HRP, 1.5 hr at 37° C., varying concentrations; FIG. 8 panel C
Procedure: (§1) In the next series of experiments, the ability of the inhibitory dipeptides, glycyl-tyrosine and glycyl-histidine, were tested for their ability to inhibit the binding of each labeled human IgG subclass to the type II receptor-positive 64/14/HRP bacteria. Glycyl-glycine was also included as a negative control.
(§2) A standard number of group A streptococci was incubated for 1.5 hr. at 37° C. with 20,000 cpm of the approprimately ^125 I-labeled human IgG subclasses in the presence of varying concentrations of dipeptide. The bacteria were pelleted by centrifugations of 1000×g for 10 min. and washed twice with 3 ml of veronal buffered saline containing 0.01 M EDTA and 0.1% gelatin. The radioactivity associated with the bacteria was determined in an LKB autogamma counter. The cpm bound to the baterial pellet were expressed as percent of maximum cpm bound. See FIG. 8 wherein Panel A represents the results obtained from the binding of ^125 I IgG1. Panel B represents the results obtained from the binding of ^125 I IgG2. Panel C represents the results obtained from the binding of ^125 I IgG3. Panel D represents the results obtained from the binding of ^125 I IgG4.

[2] = system: type IIa Fc receptor (Mr 56,000; receptor for human IgG1, IgG2 and IgG4) of group A streptococcal strain 64/14/HRP; assay: Inhibition of 125I-labeled IgG1, IgG2, IgG4, pig or rabbit IgG binding to strain 64/14/HRP; conditions: whole bacteria 64/14/HRP, 1.5 hr at 37° C.; for inhibition of binding of labeled human IgG1, IgG2 and IgG4 to the bacteria: varying concentrations, FIG. 8 panels A, B, D; for inhibition of binding of labeled pig or rabbit IgG to the bacteria: FIG. 9
Procedure: as §1, §2
In the next series of experiments the effect of histidine, glycyl-histidineor glycyl-tyrosine on the binding of labeled pig or rabbit IgG was tested.
A standard number of group A streptococci was incubated for 1.5 hr. at 37° C. with 20,000 cpm of the appropriately ^125 I-labeled species IgG in the presence of the indicated amounts of histidine. The bacteria were washed as described above. The cpm bound to the bacterial pellet were expressed as percent of maximum cpm bound. In FIG. 9, ( .circle.--.circle. ) represents ^125 I human IgG; ( -- ) represents ^125 I pig IgG; and ( -- ) represents rabbit IgG.

[3] = system: type II Fc receptor on group A streptococcal strain 64/14/HRP; assay: Inhibition of 125I-labeled IgG binding to type II Fc receptor-positive bacteria by dipeptides or histidine; conditions: whole bacteria 64/14/HRP, 1.5 hr at 37° C., 20,000 cpm 125I human IgG; concentration range, see FIG. 7, FIG. 9
Procedure: Staphylococcus aureus Cowan I served as the representative type I Fc receptor-positive strain. The group A streptococcal strain 64/14/HRP served as a representative type II Fc receptor-positive strain. The group C streptococcal strain 26RP66 served as a representative type III Fc receptor-positive strain. All strains were grown as stationary cultures in Todd Hewitt broth (Difco) for 18-24 hr at 37° C., harvested by centrifugation and washed in phosphate buffered saline (PBS), pH 7.2.
Glycyl-L-tyrosine, glycyl-L-histidine, glycyl-glycine, glycyl-DL-leucine, glycyl-DL-phenylalanine, and L-histidine were utilized in the tests.
The detection of Fc-reactive proteins on the surface of bacteria was determined by the ability of the bacteria to bind ^125 I-labeled IgG as follows: Briefly, a stock preparation of bacteria was standardized to bind approximately 75% of the 20,000 cpm of labeled IgG added at pH 7.0. Following standardization for the Fc receptor activity, aliquots of bacteria were incubated with ^125 I-labeled IgG and the indicated amount of the dipeptides for 1.5 hr. at 37° C. […] The radioactivity associated with the bacteria was determined in an LKB autogamma counter. The cpm bound to the bacterial pellet were expressed as percent of maximum cpm bound. […]
A standard number of Staphylococcus aureus Cowan strain ( -- ), group C streptococcal strain 26RP66 (.largecircle.--.largecircle.), or the group A streptococcal strain 64/14/HRP ( .circle.--.circle. ) was incubated for 1.5 hr. at 37° C. with 20,000 cpm of ^125 I labeled human IgG in the presence of the indicated amounts of dipeptide. […] The radioactivity associated with the bacteria was determined in an LKB autogamma counter. The cpm bound to the bacterial pellet were expressed as percent of maximum cpm bound.
A standard number of group A streptococci was incubated for 1.5 hr. at 37° C. with 20,000 cpm of the appropriately ^125 I-labeled species IgG in the presence of the indicated amounts of histidine. […] The cpm bound to the bacterial pellet were expressed as percent of maximum cpm bound. […]

## NCC(=O)N[C@@H](Cc1c[nH]cn1)C(=O)O [glycyl-histidine, glycyl-L-histidine] (H-Gly-His-OH)
[1]
  inhibition of binding of labeled human IgG3 to the bacteria: minimal inhibition
[2]
  inhibition of binding of labeled human IgG1, IgG2 and IgG4 to the bacteria: efficiently inhibit
  inhibition of binding of labeled pig or rabbit IgG to the bacteria: inhibited
[3]
  inhibition of binding of 125I-labeled human IgG to type II Fc receptor positive bacteria: inhibition

## N[C@@H](Cc1c[nH]cn1)C(=O)O [histidine, L-histidine]
[1]
  inhibition of binding of labeled human IgG3 to the bacteria: minimal inhibition
[2]
  inhibition of binding of labeled human IgG1, IgG2 and IgG4 to the bacteria: inhibited
  inhibition of binding of labeled pig or rabbit IgG to the bacteria: inhibited
[3]
  inhibition of binding of 125I-labeled human IgG to type II Fc receptor positive bacteria: inhibited

## NCC(=O)N[C@@H](Cc1ccc(O)cc1)C(=O)O [glycyl-tyrosine, Glycyl-L-tyrosine] (H-Gly-Tyr-OH)
[1]
  inhibition of binding of labeled human IgG3 to the bacteria: minimal inhibition
[2]
  inhibition of binding of labeled human IgG1, IgG2 and IgG4 to the bacteria: efficiently inhibit
  inhibition of binding of labeled pig or rabbit IgG to the bacteria: inhibited
[3]
  inhibition of binding of 125I-labeled human IgG to type II Fc receptor positive bacteria: inhibition
